For the data set, the system named is CCRIS mutagenicity, Ames/micronucleus/aberration tests. Kind of data set: CCRIS mutagenicity studies.
[1] abbreviates: Test System: AMES SALMONELLA TYPHIMURIUM, Strain/Indicator: TA98, Metabolic Activation: NONE, Method: STANDARD PLATE.
Where [2] appears, read: Test System: MOUSE LYMPHOMA, Strain/Indicator: L5178Y (TK+/TK-), Metabolic Activation: NONE, Method: SUSPENSION/PLATE.
Setting [3] is: Test System: AMES SALMONELLA TYPHIMURIUM, Strain/Indicator: TA100, Metabolic Activation: NONE, Method: STANDARD PLATE.
[4] abbreviates: Test System: AMES SALMONELLA TYPHIMURIUM, Strain/Indicator: TA98, Metabolic Activation: RAT, LIVER, S-9, AROCLOR 1254, Method: STANDARD PLATE.
The mark [5] stands for this setting: Test System: AMES SALMONELLA TYPHIMURIUM, Strain/Indicator: TA100, Metabolic Activation: RAT, LIVER, S-9, AROCLOR 1254, Method: STANDARD PLATE.

Calls of active or inactive are those of the source. The rule behind the calls is not given here.

As for `O=Nc1ccc(NO)cc1`, the mutagenic call by setting is: (End Point: IN VITRO CHROMOSOMAL ABERRATIONS, Test System: CHL CELLS, Metabolic Activation: NONE) “active; positive (structural changes)”; (End Point: IN VITRO CHROMOSOMAL ABERRATIONS, Test System: CHL CELLS, Metabolic Activation: RAT, LIVER, S-9, SODIUM PHENOBARBITAL AND 5,6-BENZOFLAVONE) “active; positive (structural changes)”; under setting [1], “active; positive”; (Test System: AMES SALMONELLA TYPHIMURIUM, Strain/Indicator: TA98, Metabolic Activation: S-9, PHENOBARBITONE AND BETA-NAPHTHOFLAVONE, Method: STANDARD PLATE) “active; positive”; (Test System: E. COLI, Strain/Indicator: WP2 UVRA, Metabolic Activation: HAMSTER, LIVER, S-9, AROCLOR 1254, Method: STANDARD PLATE) “inactive; negative”; (Test System: E. COLI, Strain/Indicator: WP2 UVRA, Metabolic Activation: HAMSTER, LIVER, S-9, Method: STANDARD PLATE) “inactive; negative”. Moreover, the mutagenic call runs as follows: (Test System: E. COLI, Strain/Indicator: WP2 UVRA, Metabolic Activation: MOUSE, LIVER, S-9, AROCLOR 1254, Method: STANDARD PLATE) “inactive; negative”; (Test System: E. COLI, Strain/Indicator: WP2 UVRA, Metabolic Activation: MOUSE, LIVER, S-9, Method: STANDARD PLATE) “inactive; negative”; (Test System: E. COLI, Strain/Indicator: WP2 UVRA, Metabolic Activation: NONE, Method: STANDARD PLATE) “inactive; negative”; (Test System: E. COLI, Strain/Indicator: WP2 UVRA, Metabolic Activation: RAT, LIVER, S-9, AROCLOR 1254, Method: STANDARD PLATE) “inactive; negative”; (Test System: E. COLI, Strain/Indicator: WP2 UVRA, Metabolic Activation: RAT, LIVER, S-9, Method: STANDARD PLATE) “inactive; negative”; (Test System: MOUSE LYMPHOMA, Strain/Indicator: L5178Y (HPRT), Metabolic Activation: NONE, Method: SUSPENSION/PLATE) “inactive; negative”. For the same compound, the mutagenic call under setting [2] is “active; positive” and the mutagenic call (Test System: UDS RODENT HEPATOCYTES, Strain/Indicator: THY INCORP, Metabolic Activation: NONE, Method: IN VIVO) was “inactive; negative”.
Consider `ClCc1ccc2c3c(cccc13)-c1ccccc1-2`, for which the mutagenic call runs as follows: under setting [1], “active; positive”; under setting [3], “active; positive”.
Take `Cn1cnc([N+](=O)[O-])c1-c1ccccc1`: under setting [3], the mutagenic call was “inactive; negative”.
Consider `O=C(Nc1ccc2c(c1)C=C(S(=O)(=O)O)/C(=N/Nc1ccc(N=Nc3ccc(S(=O)(=O)O)cc3)cc1S(=O)(=O)O)C2=O)Nc1ccc2c(c1)C=C(S(=O)(=O)O)/C(=N/Nc1ccc(N=Nc3ccc(S(=O)(=O)O)cc3)cc1S(=O)(=O)O)C2=O`, for which the mutagenic call reads like this: under setting [2], “inactive; negative. reevaluation of results: negative”; (Test System: MOUSE LYMPHOMA, Strain/Indicator: L5178Y (TK+/TK-), Metabolic Activation: RAT, LIVER, S-9, AROCLOR 1254, Method: SUSPENSION/PLATE) “inactive; negative. reevaluation of results: negative”.
For the compound `CNc1ccnc(-c2cc(N(C)C)ccn2)c1.CNc1ccnc(-c2cc(N(C)C)ccn2)c1.F[P-](F)(F)(F)(F)F.F[P-](F)(F)(F)(F)F.F[P-](F)(F)(F)(F)F.F[P-](F)(F)(F)(F)F.[NH3+]Cc1ccnc(-c2cc(C[NH3+])ccn2)c1.[Os+2]`, the mutagenic call under setting [1] is “inactive; negative”, the mutagenic call under setting [4] was “inactive; negative”, the mutagenic call under setting [3] was “inactive; negative” and the mutagenic call under setting [5] is “inactive; negative”.
Consider `O=C(/C=C/c1ccc(Oc2ccccc2)cc1)c1ccccc1`, for which the mutagenic call by setting is: under setting [1], “inactive; negative”; under setting [4], “inactive; negative”; under setting [3], “inactive; negative”; under setting [5], “inactive; negative”.
Consider `CN(C)c1ccc(N=Nc2ccc(S(=O)(=O)O)cc2)cc1`, for which the mutagenic call was “inactive; negative” (Test System: Ames Salmonella typhimurium, Strain/Indicator: TA102, Metabolic Activation: None, Method: Preincubation); “active; positive. statistically significant at highest dose” (Test System: Ames Salmonella typhimurium, Strain/Indicator: TA102, Metabolic Activation: Rat, Liver, S-9, Aroclor 1254, Method: Preincubation); “inactive; negative” (Test System: Ames Salmonella typhimurium, Strain/Indicator: TA104, Metabolic Activation: None, Method: Preincubation); “active; positive. statistically significant at highest dose” (Test System: Ames Salmonella typhimurium, Strain/Indicator: TA104, Metabolic Activation: Rat, Liver, S-9, Aroclor 1254, Method: Preincubation).
As for `OCCCCCCO`, the mutagenic call is, setting by setting: (Test System: AMES SALMONELLA TYPHIMURIUM, Strain/Indicator: TA98, Metabolic Activation: NONE, Method: PREINCUBATION) “inactive; negative”; (Test System: AMES SALMONELLA TYPHIMURIUM, Strain/Indicator: TA98, Metabolic Activation: RAT LIVER S-9, PHENOBARBITAL AND BETA-NAPHTHOFLAVONE, Method: PREINCUBATION) “inactive; negative”; (Test System: AMES SALMONELLA TYPHIMURIUM, Strain/Indicator: TA100, Metabolic Activation: NONE, Method: PREINCUBATION) “inactive; negative”; (Test System: AMES SALMONELLA TYPHIMURIUM, Strain/Indicator: TA100, Metabolic Activation: RAT LIVER S-9, PHENOBARBITAL AND BETA-NAPHTHOFLAVONE, Method: PREINCUBATION) “inactive; negative”; (Test System: AMES SALMONELLA TYPHIMURIUM, Strain/Indicator: TA1535, Metabolic Activation: NONE, Method: PREINCUBATION) “inactive; negative”; (Test System: AMES SALMONELLA TYPHIMURIUM, Strain/Indicator: TA1535, Metabolic Activation: RAT LIVER S-9, PHENOBARBITAL AND BETA-NAPHTHOFLAVONE, Method: PREINCUBATION) “inactive; negative”. The mutagenic call was “inactive; negative” (Test System: AMES SALMONELLA TYPHIMURIUM, Strain/Indicator: TA1537, Metabolic Activation: NONE, Method: PREINCUBATION); “inactive; negative” (Test System: AMES SALMONELLA TYPHIMURIUM, Strain/Indicator: TA1537, Metabolic Activation: RAT LIVER S-9, PHENOBARBITAL AND BETA-NAPHTHOFLAVONE, Method: PREINCUBATION); “inactive; negative” (Test System: E.COLI, Strain/Indicator: WP2UVRA/PKM101, Metabolic Activation: NONE, Method: PREINCUBATION); “inactive; negative” (Test System: E.COLI, Strain/Indicator: WP2UVRA/PKM101, Metabolic Activation: RAT LIVER S-9, PHENOBARBITAL AND BETA-NAPHTHOFLAVONE, Method: PREINCUBATION).

The record behind these values is PubChem BioAssay AID1259407 (Chemical Carcinogenesis Research Information System (CCRIS), 2018).
